Data on 15 compounds can be found in patent US8134015B2, “Compound inhibiting in vivo phosphorous transport and medicine containing the same” (Kyowa Hakko Kirin Co., Ltd., priority 2003, dated 2012).

For one experiment, the system named is SD rats. The experiment in a line: Inhibitory activity against 32P absorption from intestinal tract. Particulars: Rattus norvegicus, oral, read-out: Blood radioactivity inhibition, %. The experiment is classed as in vivo. Here is the method: Pharmacological Test Example 4
Inhibitory Activity Against ^32P Absorption from Intestinal Tract
SD rats (6 to 7 weeks old, obtained from Charles River Japan, Inc. (Japan)) were raised with low-phosphorus diet (phosphorus content 0.1%, manufactured by Oriental Yeast Co., Ltd. (Japan)) for 3 to 4 days and then fasted for about 24 hr for experiment. ^32P was diluted with purified water or liquid feed (CLEA JAPAN INC. (Japan)) to 0.7 to 3.5 MBq/ml and was forcibly orally administered at a dose of 5 ml/kg (administered into the gaster through an oral probe). The compounds or media were forcibly orally administered at a dose of 5 ml/kg (divided dose of twice), 30 min before the administration of ^32P and simultaneously with the administration of ^32P. Blood was collected from caudal artery 30 min, 45 min, or 60 min after ^32P administration, and blood ^32P radioactivity was measured with a liquid scintillation counter. Inhibition of an increase in blood radioactivity was used as a measure of inhibition of phosphate absorption from the intestinal tract.
The results are expressed in terms of the percentage inhibition determined by the following equation. (Blood radioactivity for group with the administration of medium−Blood radioactivity for group with the administration of compound)/(Blood radioactivity for group with the administration of medium)×100
t-Test was used for a significant test of the average value difference of blood radioactivity.

Another experiment deals with T1, rat NaPi-2b (Rattus norvegicus, UniProt Q9JJ09).
T1 construct: expressed in transfected cells; host or cells: Xenopus oocytes injected with cRNA
T1 sequence (Q9JJ09 1-695): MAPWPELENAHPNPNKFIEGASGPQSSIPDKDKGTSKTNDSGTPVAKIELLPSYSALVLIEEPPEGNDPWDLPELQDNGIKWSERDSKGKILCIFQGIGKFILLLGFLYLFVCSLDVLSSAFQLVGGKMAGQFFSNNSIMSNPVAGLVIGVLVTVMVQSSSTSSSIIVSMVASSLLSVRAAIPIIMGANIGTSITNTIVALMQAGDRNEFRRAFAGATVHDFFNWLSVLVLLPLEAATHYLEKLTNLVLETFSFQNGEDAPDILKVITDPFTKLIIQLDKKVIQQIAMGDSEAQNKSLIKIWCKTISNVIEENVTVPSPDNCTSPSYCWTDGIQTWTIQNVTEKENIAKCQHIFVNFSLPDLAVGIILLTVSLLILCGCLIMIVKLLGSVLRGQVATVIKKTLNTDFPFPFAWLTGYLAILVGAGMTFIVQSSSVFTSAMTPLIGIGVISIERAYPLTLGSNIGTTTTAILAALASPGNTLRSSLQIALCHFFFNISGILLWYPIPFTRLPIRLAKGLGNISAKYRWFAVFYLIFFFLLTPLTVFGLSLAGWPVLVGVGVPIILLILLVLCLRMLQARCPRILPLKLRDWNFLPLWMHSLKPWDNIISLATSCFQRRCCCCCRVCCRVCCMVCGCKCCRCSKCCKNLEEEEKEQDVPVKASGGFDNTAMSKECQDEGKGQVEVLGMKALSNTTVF
The experiment in a line: Sodium-dependent phosphate uptake of Xenopus oocytes which expressed NaPi-2b (32P). The experiment is classed as cell-based. The settings on record: for pIC50: Xenopus oocytes expressing rat NaPi-2b, 32P radioactive phosphorus, read-out: IC50 (phosphate uptake inhibitory activity). In outline: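 Steps: rat NaPi-2b cDNA cloned from small intestine; cRNA made and injected into oocytes; 2-day expression; 32P phosphate uptake with compound; % inhibition at 300/100 μM taken from one curve.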

The test system of experiment [1] is rabbit jejunal brush border membrane vesicles. The experiment in a line: Nonspecific inhibitory activity against glucose absorption in rabbit jejunal brush border membrane vesicles (14C-glucose). Particulars: FIG. 2. The experiment is classed as biochemical. Here is the method: (§1) Jejunal epithelium was obtained from New Zealand white male rabbits (7 weeks old, obtained from KITAYAMA LABES Co., Ltd. (Japan)), and brush border membrane vesicles were isolated by the calcium precipitation method described in Kanako Katai et al., J. Biochem. 121, 50-55, 1997, and Peerce, B. E. et al., Biochemistry 26, 4272-4279, 1987. Thereafter, for compound 29 and compound 68, the phosphate uptake inhibitory activity was measured using the same samples with ^32P radioactive phosphorus (manufactured by Daiichi Kagaku Inc. (Japan)) by the rapid filtration method described in Kanako Katai et al., J. Biochem. 121, 50-55, 1997. […] Further, in the same experiment, nonspective inhibitory activity against glucose absorption was determined using 14C-glucose (manufactured by Moravek Biochemical Inc. (US)). […] In both the experiments, a group with the addition of potassium chloride was used as a negative control for nonspecific uptake. All the test results given below were expressed in terms of average value±standard error. Student's t-test was used for a significant test of the control group and the test compound group.

A further experiment has as its target T2, human NaPi-2a (Homo sapiens, UniProt Q06495).
T2 construct: expressed in transfected cells
T2 sequence (Q06495 1-639): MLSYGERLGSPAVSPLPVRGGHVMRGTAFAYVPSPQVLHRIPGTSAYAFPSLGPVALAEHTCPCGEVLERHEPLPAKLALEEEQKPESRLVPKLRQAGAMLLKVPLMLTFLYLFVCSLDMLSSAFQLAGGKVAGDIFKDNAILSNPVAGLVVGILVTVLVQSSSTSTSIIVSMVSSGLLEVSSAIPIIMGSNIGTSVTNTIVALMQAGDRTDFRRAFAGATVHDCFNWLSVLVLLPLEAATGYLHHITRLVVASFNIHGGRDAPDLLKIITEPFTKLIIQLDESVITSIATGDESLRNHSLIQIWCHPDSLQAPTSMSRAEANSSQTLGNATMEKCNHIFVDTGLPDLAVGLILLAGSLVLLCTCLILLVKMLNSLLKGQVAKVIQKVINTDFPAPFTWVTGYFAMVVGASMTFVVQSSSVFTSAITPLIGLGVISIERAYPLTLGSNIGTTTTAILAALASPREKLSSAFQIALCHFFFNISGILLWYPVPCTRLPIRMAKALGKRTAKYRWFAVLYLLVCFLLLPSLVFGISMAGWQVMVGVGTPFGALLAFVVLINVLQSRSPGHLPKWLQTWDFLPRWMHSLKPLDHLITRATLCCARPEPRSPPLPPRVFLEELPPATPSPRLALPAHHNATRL
The experiment in a line: Sodium-dependent phosphate uptake of Xenopus oocytes which expressed NaPi-2a (32P). The experiment is classed as cell-based. The settings on record: Xenopus oocytes expressing human NaPi-2a, FIG. 3, FIG. 4. The text has this: Experiment of Sodium-Dependent Phosphate Uptake of Xenopus oocytes which Expressed NaPi-2a
In the test, a group with the addition of choline chloride (Choline Cl) was used as a negative control for nonspecific uptake, and PFA (phosphonoformic acid) was used as a positive control for phosphate transport inhibition.

Experiment [2] deals with rabbit jejunal brush border membrane vesicles. The experiment in a line: Sodium-dependent phosphate uptake of rabbit jejunal brush border membrane vesicles (32P, rapid filtration). The experiment is classed as biochemical. Particulars: FIG. 1.
From the text: Pharmacological Test Example 2
Experiment of Sodium-Dependent Phosphate Uptake of Rabbit Jejunal Brush Border Membrane Vesicles
as §1

pIC50: −log10 of the molar value. Counter-ions that a name gives are not always drawn.

For `COc1cccc(/C=N/NC(=O)c2cc(Br)ccc2NC(=O)c2ccc(CN3CCC(N4CCCCC4)CC3)cc2)c1` [Compound 315, 4-[1,4′]Bipiperidinyl-1′-ylmethyl-N-[4-bromo-2-(3-methoxy-benzylidene-hydrazinocarbonyl)-phenyl]-benzamide], in the experiment with SD rats, the inhibition in vivo at 100 mg/kg is 42.4%. In addition, at rat NaPi-2b, the negative logarithm of the IC50 (pIC50) (commonly the negative decadic logarithm of the IC50, by convention in mol/L) was 5.04.
Turning to `Cc1ccc(/C=N/NC(=O)c2ccccc2NC(=O)c2cccnc2)cc1C` [Compound 165, N-[2-(3,4-Dimethyl-benzylidene-hydrazinocarbonyl)-phenyl]-nicotinamide hydrochloride], in the experiment with SD rats, the inhibition in vivo at 400 mg/kg turned out to be 27.6%. The negative logarithm of the IC50 (pIC50) on rat NaPi-2b was 5.61.
In the case of `CCN(CC)CCN(C)Cc1ccc(C(=O)Nc2ccc(Br)cc2C(=O)N/N=C/c2ccc(C)cc2)cc1` [Compound 285, N-[4-Bromo-2-(4-methyl-benzylidene-hydrazinocarbonyl)-phenyl]-4-{[(2-diethylamino-ethyl)-methyl-amino]-methyl}-benzamide], the inhibition in vivo at 80 mg/kg in the experiment on SD rats (dose 80 mg/kg) worked out at 60.3%. Further, on rat NaPi-2b, the pIC50 is 6.05.
With `COc1ccc(C(=O)Nc2ccc(Br)cc2C(=O)N/N=C/c2cccc(F)c2)cc1OC` [Compound 29, N-[4-Bromo-2-(3-fluoro-benzylidene-hydrazinocarbonyl)-phenyl]-3,4-dimethoxy-benzamide], the pIC50 at rat NaPi-2b was 6.26. Further, the “phosphate uptake inhibitory activity against NaPi-2b” value at rat NaPi-2b (Xenopus oocytes, FIG. 4) is listed as “had inhibitory activity”. In addition, the “nonspecific inhibitory activity against glucose absorption” value in experiment [1] was “did not have the inhibitory activity”. In addition, the “phosphate uptake inhibitory activity against NaPi-2a” value at human NaPi-2a is on record as “had inhibitory activity”. For the same compound, the “phosphate uptake inhibitory activity” value in experiment [2] is “concentration-dependent inhibitory activity”.
`O=C(Nc1ccc(Br)cc1C(=O)N/N=C/c1cccc(F)c1)c1cccs1` [Compound 157, Thiophene-2-carboxylic acid [4-bromo-2-(3-fluoro-benzylidene-hydrazinocarbonyl)-phenyl]-amide]: in the experiment on SD rats, the inhibition in vivo at 320 mg/kg came to 20.7%. Moreover, the pIC50 at rat NaPi-2b was 5.14.
For `Cc1ccc(/C=N/NC(=O)c2ccccc2NC(=O)c2ccncc2)cc1C` [Compound 163, N-[2-(3,4-Dimethyl-benzylidene-hydrazinocarbonyl)-phenyl]-isonicotinamide hydrochloride], the inhibition in vivo at 360 mg/kg in the experiment on SD rats (dose 360 mg/kg) amounted to 57.8%. In addition, at rat NaPi-2b, the negative-log IC50 (pIC50) was 5.80.
As to `COc1ccc(C(=O)Nc2ccc(Cl)cc2C(=O)N/N=C/c2ccc(Cl)c(C(F)(F)F)c2)cc1OC` [Compound 88, N-[4-Chloro-2-(4-chloro-3-trifluoromethyl-benzylidene-hydrazinocarbonyl)-phenyl]-3,4-dimethoxy-benzamide], the inhibition in vivo at 400 mg/kg with SD rats was found to be 29.1%. For the same compound, the pIC50 at rat NaPi-2b is 6.66.
In the case of `O=C(Nc1ccccc1C(=O)N/N=C/c1ccc(F)cc1)c1cccnc1` [Compound 130, N-[2-(4-Fluoro-benzylidene-hydrazinocarbonyl)-phenyl]-nicotinamide], in the experiment with SD rats (dose 270 mg/kg), the inhibition in vivo at 270 mg/kg is 22.8%. Further, the pIC50 on rat NaPi-2b is 4.94.
With `Cc1ccc(/C=N/NC(=O)c2cc(Cl)ccc2NC(=O)c2cccc(CN3CCC(N4CCCCC4)CC3)c2)cc1C` [Compound 372, 3-[1,4′]Bipiperidinyl-1′-ylmethyl-N-[4-chloro-2-(3,4-dimethyl-benzylidene-hydrazinocarbonyl)-phenyl]-benzamide], the inhibition in vivo at 100 mg/kg in the experiment with SD rats stood at 63.7%. At rat NaPi-2b, the pIC50 is 6.10.
Regarding `Cc1ccc(/C=N/NC(=O)c2cc(Br)ccc2NC(=O)c2cccnc2)cc1` [Compound 252, N-[4-Bromo-2-(4-methyl-benzylidene-hydrazinocarbonyl)-phenyl]-nicotinamide hydrochloride], the inhibition in vivo at 400 mg/kg in the experiment with SD rats was determined as 29.2%. Further, at rat NaPi-2b, the pIC50 was 5.83.
As to `COc1ccc(C(=O)Nc2ccc(Br)cc2C(=O)N/N=C/c2ccc(C)c(C)c2)cc1OC` [Compound 91, N-[4-Bromo-2-(3,4-dimethyl-benzylidene-hydrazinocarbonyl)-phenyl]-3,4-dimethoxy-benzamide], in the experiment with SD rats, the inhibition in vivo at 320 mg/kg is 28.3%. Moreover, the negative-log IC50 (pIC50) on rat NaPi-2b is 6.66.
`Cc1ccc(/C=N/NC(=O)c2ccccc2NC(=O)c2cccnc2)cc1` [Compound 164, N-[2-(4-Methyl-benzylidene-hydrazinocarbonyl)-phenyl]-nicotinamide hydrochloride]: in the experiment on SD rats, the inhibition in vivo at 400 mg/kg amounted to 55%. For the same compound, the negative logarithm of the IC50 (pIC50) at rat NaPi-2b was 5.32.
As to `COc1ccc(C(=O)Nc2ccc(Cl)cc2C(=O)N/N=C/c2ccc(C)cc2)cc1OC` [Compound 68, N-[4-Chloro-2-(4-methyl-benzylidene-hydrazinocarbonyl)-phenyl]-3,4-dimethoxy-benzamide], on rat NaPi-2b, the pIC50 was 6.44. Further, the “nonspecific inhibitory activity against glucose absorption” value in experiment [1] is recorded as “did not have the inhibitory activity”. Moreover, the “phosphate uptake inhibitory activity” value in experiment [2] is reported as “concentration-dependent inhibitory activity”.
`COc1ccc(C(=O)Nc2ccc(Cl)cc2C(=O)N/N=C/c2ccc(C)c(C)c2)cc1OC` [Compound 92, N-[4-Chloro-2-(3,4-dimethyl-benzylidene-hydrazinocarbonyl)-phenyl]-3,4-dimethoxy-benzamide]: the inhibition in vivo at 160 mg/kg in the experiment with SD rats (dose 160 mg/kg) amounted to 25.5%. Besides, on rat NaPi-2b, the pIC50 was 6.59.
On to `Cc1cccc(/C=N/NC(=O)c2ccccc2NC(=O)c2ccncc2)c1` [Compound 253, N-[2-(3-Methyl-benzylidene-hydrazinocarbonyl)-phenyl]-isonicotinamide hydrochloride], for which the inhibition in vivo at 400 mg/kg with SD rats is 39%. Besides, the pIC50 at rat NaPi-2b is 5.46.
